Reference: patent EP0004590A1, “Penicillin and cephalosporin derivatives, processes for their preparation and their applications” (BAYER AG, priority 1978, dated 1979)

What was measured:
E. coli Neumann = experiment: Minimum inhibitory concentration (MHK); type: cell-based
Klebsiella 6097 = experiment: Minimum inhibitory concentration (MHK); type: cell-based
Proteus rettg. = experiment: Minimum inhibitory concentration (MHK); type: cell-based
Provid. 12012 = experiment: Minimum inhibitory concentration (MHK); type: cell-based
E.coli 183/58 = experiment: Minimum inhibitory concentration (MHK); type: cell-based
Serratia 16 001 = experiment: Minimum inhibitory concentration (MHK); type: cell-based
Klebs. 63 = experiment: Minimum inhibitory concentration (MHK); type: cell-based
Escherichia coli Neumann = experiment: Animal test with the white mouse, intraperitoneal infection, ED50 after 24 hours; type: in vivo, weiße Maus; conditions: sc; white mice strain CF1 infected intraperitoneally with Escherichia coli Neumann; subcutaneous; therapy 30 and 90 minutes after infection; dose at which 50 % of infected animals survive after 24 hours; read-out: ED50 nach 24 Stunden
From the text: Aus der folgenden Tabelle 1 geht die Wirkung einer der erfindungsgemäßen Verbindungen gegen eine Reihe von Bakterien im Tierversuch mit der weißen Maus hervor. Die weißen Mäuse vom Stamm CF1 wurden intraperitoneal mit der jeweils angegebenen Bakterienart infiziert.
Therapie: zweimalig : 30 und 90 Minuten nach der Infektion. Die ED50 ist die Dosis, bei der 50 % der infizierten Tiere nach 24 Stunden nocht überleben.

E. coli C 165 = experiment: Minimum inhibitory concentration (MHK); type: cell-based
Prot. vulg. 9023 = experiment: Minimum inhibitory concentration (MHK); type: cell-based
Psdm. F 41 = experiment: Minimum inhibitory concentration (MHK); type: cell-based
E. coli 4322 = experiment: Minimum inhibitory concentration (MHK); type: cell-based

CN1C(=O)CCN(C(=O)N[C@@H](C(=O)N[C@@H]2C(=O)N3[C@@H]2SC(C)(C)[C@@H]3C(=O)O)c2ccccc2)C1=O [Beispiel 1]
Wirksamkeit (MHK in E/ml) (E. coli Neumann): 4 E/ml

CCN1C(=O)CCN(C(=O)N[C@@H](C(=O)N[C@@H]2C(=O)N3[C@@H]2SC(C)(C)[C@@H]3C(=O)O)c2ccccc2)C1=O [Beispiel 4]
Wirksamkeit (MHK in E/ml) (E. coli Neumann): 4 E/ml | Wirksamkeit (MHK in E/ml) (Klebsiella 6097): 16 E/ml | Wirksamkeit (MHK in E/ml) (Proteus rettg.): 16 E/ml | Wirksamkeit (MHK in E/ml) (Provid. 12012): 16 E/ml

CC(=O)OCC1=C(C(=O)O)N2C(=O)[C@@H](NC(=O)[C@H](NC(=O)N3CCC(=O)N(C4CC4)C3=O)c3ccccc3)[C@H]2SC1 [Beispiel 11]
Wirksamkeit (MHK in E/ml) (E.coli 183/58): 16 E/ml

CC1(C)S[C@@H]2[C@H](NC(=O)[C@H](NC(=O)N3CCC(=O)N(C4CC4)C3=O)c3ccccc3)C(=O)N2[C@H]1C(=O)O [Beispiel 9]
Wirksamkeit (MHK in E/ml) (E. coli Neumann): 4 E/ml | Wirksamkeit (MHK in E/ml) (Serratia 16 001): 16 E/ml | Wirksamkeit (MHK in E/ml) (Klebs. 63): 8 - 16 E/ml | ED50 (Escherichia coli Neumann): 300 mg/kg

CCN1C(=O)CCN(C(=O)N[C@@H](C(=O)N[C@@H]2C(=O)N3[C@@H]2SC(C)(C)[C@@H]3C(=O)O)c2ccc(O)cc2)C1=O [Beispiel 5]
Wirksamkeit (MHK in E/ml) (E. coli C 165): 16 E/ml | Wirksamkeit (MHK in E/ml) (Prot. vulg. 9023): 16 E/ml

CC(=O)OCC1=C(C(=O)O)N2C(=O)[C@@H](NC(=O)[C@H](NC(=O)N3CCC(=O)N(C)C3=O)c3ccccc3)[C@H]2SC1 [Beispiel 3]
Wirksamkeit (MHK in E/ml) (E. coli Neumann): 8-16 E/ml

CCCN1C(=O)CCN(C(=O)N[C@@H](C(=O)N[C@@H]2C(=O)N3[C@@H]2SC(C)(C)[C@@H]3C(=O)O)c2ccccc2)C1=O [Beispiel 6]
Wirksamkeit (MHK in E/ml) (Klebsiella 6097): 16 E/ml | Wirksamkeit (MHK in E/ml) (E.coli 183/58): 4 E/ml

CN1C(=O)CCN(C(=O)N[C@@H](C(=O)N[C@@H]2C(=O)N3[C@@H]2SC(C)(C)[C@@H]3C(=O)O)c2ccc(O)cc2)C1=O [Beispiel 2]
Wirksamkeit (MHK in E/ml) (Serratia 16 001): 16 E/ml

CCCN1C(=O)CCN(C(=O)N[C@@H](C(=O)N[C@@H]2C(=O)N3C(C(=O)O)=C(COC(C)=O)CS[C@H]23)c2ccccc2)C1=O [Beispiel 8]
Wirksamkeit (MHK in E/ml) (E. coli Neumann): 4 E/ml | Wirksamkeit (MHK in E/ml) (Prot. vulg. 9023): 8 - 16 E/ml

CC1(C)S[C@@H]2[C@H](NC(=O)[C@H](NC(=O)N3CCC(=O)N(C4CC4)C3=O)c3ccc(O)cc3)C(=O)N2[C@H]1C(=O)O [Beispiel 10]
Wirksamkeit (MHK in E/ml) (Psdm. F 41): 64 E/ml | Wirksamkeit (MHK in E/ml) (E. coli 4322): 16 E/ml
